Experimental data reported in patent publication US20140350029A1 (DAINIPPON SUMITOMO PHARMA CO., LTD., priority 2011, published 2014).
Entries after “also recorded” stand apart in the source; their conditions may differ.

What was measured:
[1] = tested on: patients with schizophrenia; assay: PANSS and BPRS scores, 1-year lurasidone therapy; type: in vivo, human; details: 40-120 mg/day, over a 1-year period
[2] = target: T1, Norepinephrine α2C receptor (Homo sapiens, UniProt P18825); assay: In vitro receptor binding, norepinephrine α2C
T1 sequence (P18825 1-462): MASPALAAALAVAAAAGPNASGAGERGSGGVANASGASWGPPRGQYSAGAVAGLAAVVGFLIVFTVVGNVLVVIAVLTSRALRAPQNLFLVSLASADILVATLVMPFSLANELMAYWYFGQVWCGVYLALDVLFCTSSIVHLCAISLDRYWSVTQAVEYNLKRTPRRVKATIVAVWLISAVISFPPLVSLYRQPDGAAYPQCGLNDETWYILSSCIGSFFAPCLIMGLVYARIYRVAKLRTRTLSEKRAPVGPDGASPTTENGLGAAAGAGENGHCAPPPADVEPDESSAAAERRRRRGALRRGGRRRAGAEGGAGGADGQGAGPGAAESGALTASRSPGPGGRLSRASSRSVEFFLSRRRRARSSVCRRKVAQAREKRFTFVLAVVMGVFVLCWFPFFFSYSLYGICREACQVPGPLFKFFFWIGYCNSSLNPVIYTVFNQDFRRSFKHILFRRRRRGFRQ

[3] = target: T2, serotonin 5-HT1A receptor (Homo sapiens, UniProt P08908); details: background statement; cited from earlier work
T2 sequence (P08908 1-422): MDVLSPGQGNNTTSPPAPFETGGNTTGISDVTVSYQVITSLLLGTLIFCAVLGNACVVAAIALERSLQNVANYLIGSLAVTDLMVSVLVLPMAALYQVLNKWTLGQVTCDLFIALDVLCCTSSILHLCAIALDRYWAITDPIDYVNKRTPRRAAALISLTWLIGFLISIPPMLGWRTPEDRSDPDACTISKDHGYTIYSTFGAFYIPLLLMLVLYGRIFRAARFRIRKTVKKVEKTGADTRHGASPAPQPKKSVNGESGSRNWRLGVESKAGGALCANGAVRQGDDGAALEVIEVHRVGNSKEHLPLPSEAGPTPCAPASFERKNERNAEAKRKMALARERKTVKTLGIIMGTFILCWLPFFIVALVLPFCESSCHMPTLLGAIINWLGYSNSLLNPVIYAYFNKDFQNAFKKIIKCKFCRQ

[4] = Short-term (6-week) and long-term (6-month, 12-month) metabolic safety study; type: in vivo, human
Procedure: The mean change in weight and BMI was assessed at the LOCF endpoint for the short-term study. […] FIG. 6 summarizes the mean change in weight and BMI in observed cases after 6 months and 12 months of treatment
The median change in total cholesterol and triglycerides, and glucose and HbA1c, was also assessed for both the short-term and long-term studies.

[5] = target: histamine H1 receptor (Homo sapiens, UniProt P35367); details: background statement; cited from earlier work
Sequence of histamine H1 receptor (P35367 whole entry): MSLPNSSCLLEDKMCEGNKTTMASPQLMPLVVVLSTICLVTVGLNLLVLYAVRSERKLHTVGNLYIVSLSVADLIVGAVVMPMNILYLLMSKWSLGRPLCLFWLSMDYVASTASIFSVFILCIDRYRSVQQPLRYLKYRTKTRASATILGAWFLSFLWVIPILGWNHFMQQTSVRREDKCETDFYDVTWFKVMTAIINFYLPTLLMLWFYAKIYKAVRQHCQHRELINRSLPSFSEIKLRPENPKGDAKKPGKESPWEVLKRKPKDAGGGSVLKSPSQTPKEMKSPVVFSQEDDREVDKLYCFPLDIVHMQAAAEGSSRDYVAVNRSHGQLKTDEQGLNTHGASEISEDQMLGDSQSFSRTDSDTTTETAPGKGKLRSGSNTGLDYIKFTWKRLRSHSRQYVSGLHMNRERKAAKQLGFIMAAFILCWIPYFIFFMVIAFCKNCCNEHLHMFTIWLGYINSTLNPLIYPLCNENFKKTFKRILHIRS

[6] = target: 5-HT7 receptor (Homo sapiens, UniProt P34969); details: background statement; cited from earlier work
Sequence of 5-HT7 receptor (P34969 whole entry): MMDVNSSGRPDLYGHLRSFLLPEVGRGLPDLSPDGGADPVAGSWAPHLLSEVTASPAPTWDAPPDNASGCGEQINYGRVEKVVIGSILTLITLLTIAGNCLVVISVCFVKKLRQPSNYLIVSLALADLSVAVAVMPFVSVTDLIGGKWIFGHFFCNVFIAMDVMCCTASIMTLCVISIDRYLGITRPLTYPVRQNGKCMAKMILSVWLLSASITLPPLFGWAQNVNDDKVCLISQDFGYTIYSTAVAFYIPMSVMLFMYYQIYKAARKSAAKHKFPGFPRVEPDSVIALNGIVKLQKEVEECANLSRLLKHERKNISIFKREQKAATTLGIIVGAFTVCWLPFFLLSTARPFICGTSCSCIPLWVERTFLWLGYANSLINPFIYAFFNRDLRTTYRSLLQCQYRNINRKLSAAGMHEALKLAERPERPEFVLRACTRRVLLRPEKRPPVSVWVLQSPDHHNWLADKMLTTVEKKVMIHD

## O=C1[C@@H]2[C@H]3CC[C@H](C3)[C@@H]2C(=O)N1C[C@@H]1CCCC[C@H]1CN1CCN(c2nsc3ccccc23)CC1 [Lurasidone]
[1]
  total PANSS and Brief Psychiatric Rating Scale (BPRS) scores: gradual and sustained improvement
[2]; cloned cells expressing human receptors, read-out: Binding Affinities (Ki; nM) Norepinephrine α2C
  Ki: 10.8 nM
[2]; summary of Table 2
  affinity for α2C adrenoreceptor (in words): moderate affinity
[3]
  reported affinity for 5-HT1A receptor: high affinity; also recorded: moderate affinity
[4]; short-term (6-week) study, LOCF endpoint, patients with schizophrenia
  mean change in weight and BMI as compared to other treatments: minimal increases
[4]; short-term and long-term (6 and 12 months) studies
  disturbances in lipids or glycemic control: not associated with disturbances in lipids or glycemic control
[5]
  reported affinity for histamine H1 receptor: minimal to no affinity
[6]
  reported affinity for 5-HT7 receptor: high affinity
